Results published in publication PMC7561186, “Rational design of balanced dual-targeting antibiotics with limited resistance” (PLoS Biology, 2020).
Several values for one entry are separate records, joined by “and”; a condition that tells them apart may be missing. Equal values may be shown once.

What was measured:
[1] = tested on: S. aureus Mu50 (VISA) ATCC 700699; assay: Neutropenic thigh infection model; type: in vivo, CD-1 mice; details: for Log CFU/g thigh: neutropenic thigh infection, Staphylococcus aureus Mu50 ATCC 700699 (VISA), individual animals
Description: Neutropenic mouse thigh infection experiments were performed on female CD-1 mice (Charles River Laboratories, USA). To induce neutropenia, mice received 2 doses of cyclophosphamide on days -4 and -1 with 150 mg/kg, and 100 mg/kg delivered intraperitoneally (IP), respectively. The inoculum of the testing strain, S. aureus Mu50 (VISA) ATCC 700699, was prepared from overnight agar plate cultures. To prepare bacterial inoculums, a portion of the plate was resuspended in sterile saline and adjusted to an OD of 0.12 at 625 nm. Next, the resulted bacterial suspension was further diluted to reach an infecting inoculum of 6.0×10^5 CFU per each mouse. Mice were inoculated with 100 μL of the prepared bacterial suspension via intramuscular injection into the right rear thigh. Plate counts of the inoculum were also performed in each case to confirm inoculum concentration and the actual inoculum size was 6.9×10^5 CFU/mouse. […] Test agent was then dosed via IV administration at 2, 8, 14, and 20 hours postinfection. Beginning at 2 hours, postinfection mice were dosed with either test article or positive control antibiotic. Mice receiving test agents were dosed intravenously at 10 mL/kg. Linezolid was delivered as a subcutaneous dose. Four animals were dosed per group. One group of 4 mice were euthanized at initiation of therapy (T = 2 hours) and CFUs determined. All remaining mice were euthanized at 26 hours postinfection. At termination, thighs were aseptically excised, weighed, and homogenized to a uniform consistency in 2 mL of sterile saline. The homogenate was serially diluted and plated on bacterial growth media. The CFUs were enumerated after overnight incubation.

[2] = tested on: S. aureus USA300 (MRSA) BAA1556, S. aureus (VRSA) ECL2963646, S. aureus Mu50 (VISA) ATCC 700699; assay: S. aureus dermal infection model; type: in vivo, ICR mice; details: for Log CFU/Skin: 2% treatment, individual animals; for antibacterial activity after topical application: mouse skin infection, ointment twice daily, MRSA, VISA, VRSA, comparable to mupirocin, in words
Description: The testing strains, S. aureus USA300 (MRSA) BAA1556, S. aureus (VRSA) ECL2963646, and S. aureus Mu50 (VISA) ATCC 700699 were obtained from frozen stocks and thawed at room temperature. Next, an aliquot of 0.2 mL from each stock was transferred to 20 mL BHI broth and incubated at 37 °C with shaking (120 rpm) for 8 hours. Cells in 20 mL culture were pelleted by centrifugation, 3,500g for 15 minutes, and then resuspended in 10 mL cold PBS, then cells were diluted in PBS to obtain the inoculum sizes of 1×10^5 or 1× 10^6 CFU/mL, based on the testing strain’s virulence. In all cases, the actual colony counts were determined by plating dilutions in at least 3 replicates onto MHBII agar plates followed by 24 hours’ incubation and colony counting.
For dermal infections, groups of 5 female ICR mice weighing 24 ± 4 g, provided by BioLasco Taiwan (under a Charles River Laboratories Technology Licensee), were used. Animals were acclimated for 3 days prior to use and were confirmed to be in good health. Prior to infection, animals were anesthetized with etomidate-lipuro emulsion (20 mg /10 mL) at 20 mg/kg by IV injection, and then the fur on the back was removed by an electric shaver, and the epidermal layer was disrupted with an abrasive paper according to the protocol developed by Kugelberg and colleagues. Mice were inoculated topically on the wound area with testing strain suspension, 5 μL/mouse. The target inoculation densities were 1×10^5 or 1× 10^6 CFU/mL, based on the corresponding strain’s virulence. Following infection, animals were housed separately. […] Test articles were administered topically (20 μL/mouse) twice daily. One no-treatment group was euthanized at 1 hour after infection for initial bacterial counts, and the other treatment groups were dosed twice daily with the test compounds and sacrificed either at 25 hours or at 73 hours postinfection. Animals were euthanized with CO2 asphyxiation and the infected skin, a 2 cm^2 area, was excised. The skin samples of the wound infection (around 2 cm^2 areas) were then homogenized in 1 mL PBS (pH 7.4) with a polytron homogenizer. A 0.1 mL aliquot of each homogenate was used for serial 10-fold dilutions and plated onto MHBII agar plates for bacterial enumeration. Statistical significance (P <0.05) was assessed with 1-way ANOVA followed by Dunnett’s method. A significant (P <0.05) decrease in the bacterial counts of the treated animals compared with the vehicle control group was considered significant antimicrobial activity.

[3] = Pharmacokinetics measurement in skin tissue; type: in vivo, mice; details: for Drug concentration in mouse skin tissue (individual mice) / Drug concentration in mouse skin tissue, Mean: 73 h, 3 days twice-a-day topical 20 μL ointment containing 2% drug; for Drug concentration in mouse skin tissue, Mean: n = 3; for skin concentration as multiple of the MIC in wild-type S. aureus VISA: topical treatment, mouse skin
Description: Pharmacokinetics measurement of ULD1 and ULD2 in skin tissue was conducted parallelly with the mice dermal infection study. In all cases, skin tissue samples were collected at the termination and homogenized following the same method as homogenate preparation for bacterial enumeration. Before measurement, protein precipitation was performed by treating the samples with acetonitrile. Analytics were the performed by liquid chromatography coupled mass spectrometry (LC/MS/MS) on an AB SCIEX QTRAP mass spectrometer in electrospray, positive ions ionization mode, and with Multiple Reaction Monitoring scan mode. Samples were analyzed on a Phenomenex Luna 5u Phenyl-Hexyl 50 × 2.0 mm HPLC column in a mobile phase of A: acetonitrile/formic acid = 100/0.2 (v/v), and mobile phase of B: water / formic acid = 100/0.2 (v/v). The column’s temperature was set to 30 °C, the injection volumes were 10 μL, and measurement time was 5 minutes in all cases. Oxybutynin (0.01 ng/μL in acetonitrile) was used as an internal standard for the measurement. Finally, the concentration of the drug in tissue samples was calculated from the peak area ratio.

human red blood cells = assay: Haemolysis analysis; details: for LDH activity: human red blood cells, 100 µg/mL; for hemolytic activity on human red blood cells: in words
Description: Next, 600 μl of this EDTA-treated blood was washed in TBS buffer (10 mM TRIS, 150 mM NaCl [pH 7.2]) and centrifuged at 1,500 g for 1 minute until the supernatant became colorless. The aliquot of the final pellet (200 μL) was diluted to 5 mL with TBS buffer. […] Next, 100 μL of red blood cell suspension was pipetted into sterile Eppendorf tubes together with 100 μL of 2-fold serial dilution of the compounds (final concentration ranged between 100 μg/mL–0.1 μg/mL in a final volume of 200 μL). The plate was incubated for one hour at 37 °C followed by centrifugation at 1,500 g for 1 minute to sediment all red blood cells. Next, all supernatants were subjected to LDH and Haemolysis-Icterus-Lipaemia (HIL) index determination on a Roche Modular P800 analyzer according to the manufacturer’s instructions. After completion of this step the rest of the supernatants were transferred to sterile 96-well plates for the measurement of their optical density at 560-nm wavelength (in a Multiskan FC microplate reader, Thermo Scientific). Melittin (Bachem) at a concentration of 50 μg/mL, and TBS and 10% DMSO/TBS were served as positive (100% hemolysis) and negative (no hemolysis) controls, respectively.

[4] = tested on: Staphylococcus epidermidis; assay: MIC, broth microdilution (CLSI); type: cell-based; details: Staphylococcus epidermidis ATCC 51625, MRSE
[5] = Staphylococcus aureus ECL 2963646 (VRSA)
[6] = Staphylococcus aureus Mu50 ATCC 700699 (VISA)
[7] = Staphylococcus aureus USA300 (MRSA)

## CC(=O)NC[C@H]1CN(c2ccc(N3CCOCC3)c(F)c2)C(=O)O1 [Linezolid]
[1]; 50 mg/kg
  Log CFU/g thigh: 5.65 Log CFU/g thigh and 6.12 Log CFU/g thigh and 4.95 Log CFU/g thigh

## Cc1[nH]c(C(=O)Nc2nc3ccc(C(=O)O)cc3s2)c(Cl)c1Cl [ULD1]
[2]; [5]
  Log CFU/Skin: 5.77 Log CFU/Skin and 5.81 Log CFU/Skin and 5.92 Log CFU/Skin and 6.59 Log CFU/Skin and 5.61 Log CFU/Skin
[2]; [6]
  Log CFU/Skin: 5 Log CFU/Skin and 5.57 Log CFU/Skin and 5.65 Log CFU/Skin and 4.91 Log CFU/Skin and 5.98 Log CFU/Skin
[2]; [7]
  Log CFU/Skin: 4.61 Log CFU/Skin and 3.68 Log CFU/Skin and 4.97 Log CFU/Skin and 3.75 Log CFU/Skin and 4.86 Log CFU/Skin
[2]
  antibacterial activity after topical application: potent antibacterial activity
[1]; neutropenic murine thigh infection, S. aureus VISA, comparable to linezolid, in words
  antibacterial activity after intravenous administration: potent antibacterial activity
[1]; 10 mg/kg
  Log CFU/g thigh: 7.54 Log CFU/g thigh and 7.91 Log CFU/g thigh and 8.09 Log CFU/g thigh and 8.46 Log CFU/g thigh
[1]; 25 mg/kg
  Log CFU/g thigh: 6.73 Log CFU/g thigh and 6.88 Log CFU/g thigh and 7.28 Log CFU/g thigh and 6.95 Log CFU/g thigh
[1]; 50 mg/kg
  Log CFU/g thigh: 5.41 Log CFU/g thigh and 5.69 Log CFU/g thigh
[3]
  Drug concentration in mouse skin tissue (individual mice): 8853 ng/mL and 14630 ng/mL and 6624 ng/mL
  Drug concentration in mouse skin tissue, Mean: 10036 ng/mL
  skin concentration as multiple of the MIC in wild-type S. aureus VISA: up to 300 times the MIC
Human red blood cells
  LDH activity: 40 Unit/mL
  hemolytic activity on human red blood cells: no biocompatibility concerns
[4]
  MIC: 0.0625 µg/mL

## Cc1[nH]c(C(=O)Nc2nc3c(OCc4ccccc4)cc(C(=O)O)cc3s2)c(Cl)c1Cl [ULD2]
[2]; [5]
  Log CFU/Skin: 5.96 Log CFU/Skin and 5.93 Log CFU/Skin and 5.51 Log CFU/Skin and 5.91 Log CFU/Skin and 5.45 Log CFU/Skin
[2]; [6]
  Log CFU/Skin: 4.76 Log CFU/Skin and 5.44 Log CFU/Skin and 5.93 Log CFU/Skin and 4.96 Log CFU/Skin and 5.73 Log CFU/Skin
[2]; [7]
  Log CFU/Skin: 4.14 Log CFU/Skin and 4.81 Log CFU/Skin and 5.33 Log CFU/Skin and 6.64 Log CFU/Skin and 5.97 Log CFU/Skin
[2]
  antibacterial activity after topical application: potent antibacterial activity
[3]
  Drug concentration in mouse skin tissue (individual mice): 4224 ng/mL and 6654 ng/mL and 10244 ng/mL
  Drug concentration in mouse skin tissue, Mean: 7041 ng/mL
  skin concentration as multiple of the MIC in wild-type S. aureus VISA: up to 300 times the MIC
Human red blood cells
  LDH activity: 10 Unit/mL
  hemolytic activity on human red blood cells: no biocompatibility concerns
